Non-standard residues stand in square brackets, D forms with d. Residues, ends and D or L forms follow the SMILES beside them. tBuAla = CC(C)(C)C[C@H](N)C(=O)O; Cha = N[C@@H](CC1CCCCC1)C(=O)O; Chg = N[C@H](C(=O)O)C1CCCCC1; Ac6c = NC1(C(=O)O)CCCCC1; Dap = NC[C@H](N)C(=O)O; Aoc = NCCCCCCCC(=O)O; Ahp = NCCCCCCC(=O)O; GABA = NCCCC(=O)O

The target of this assay is T1, recombinant human vWF-A1 domain (Homo sapiens, UniProt P07359).
T1 construct: whole blood drawn from voluntary donors; made in house; host or cells: E. coli (vWF-A1); washed platelets from human donor blood (GPIb, endogenous)
T1 sequence (P07359 17-652): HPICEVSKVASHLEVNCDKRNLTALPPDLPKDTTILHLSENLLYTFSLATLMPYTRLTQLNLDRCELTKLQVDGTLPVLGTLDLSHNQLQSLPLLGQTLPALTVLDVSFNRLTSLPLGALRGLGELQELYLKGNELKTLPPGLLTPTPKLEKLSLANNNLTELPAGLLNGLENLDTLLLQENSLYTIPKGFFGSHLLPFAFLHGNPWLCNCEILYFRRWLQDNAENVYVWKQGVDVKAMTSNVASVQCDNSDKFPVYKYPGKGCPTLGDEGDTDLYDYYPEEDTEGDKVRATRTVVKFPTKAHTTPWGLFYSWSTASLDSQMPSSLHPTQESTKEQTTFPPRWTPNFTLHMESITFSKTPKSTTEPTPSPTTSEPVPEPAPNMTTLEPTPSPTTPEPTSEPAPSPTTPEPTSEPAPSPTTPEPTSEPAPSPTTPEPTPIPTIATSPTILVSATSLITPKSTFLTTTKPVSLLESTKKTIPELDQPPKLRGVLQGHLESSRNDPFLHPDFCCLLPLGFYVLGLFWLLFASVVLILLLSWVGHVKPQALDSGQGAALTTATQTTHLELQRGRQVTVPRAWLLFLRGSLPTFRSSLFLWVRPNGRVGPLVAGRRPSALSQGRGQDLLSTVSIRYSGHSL
T1 sequence (P13224 26-206 partner): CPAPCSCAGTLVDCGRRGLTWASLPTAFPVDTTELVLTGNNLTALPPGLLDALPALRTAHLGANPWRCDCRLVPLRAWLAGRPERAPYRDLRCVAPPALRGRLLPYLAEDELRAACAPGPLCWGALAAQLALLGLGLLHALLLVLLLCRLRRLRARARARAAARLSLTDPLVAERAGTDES
T1 sequence (P14770 17-177 partner): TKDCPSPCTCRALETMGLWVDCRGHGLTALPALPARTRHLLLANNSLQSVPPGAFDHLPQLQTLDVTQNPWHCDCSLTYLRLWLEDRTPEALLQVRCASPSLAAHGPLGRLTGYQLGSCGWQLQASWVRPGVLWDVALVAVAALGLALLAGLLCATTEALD
Kind of assay: Static human platelet adhesion to recombinant human vWF-A1 domain. The format is cell-based. The following applies: washed calcein AM labeled human platelets, static conditions, 1.5 h adhesion; read-out: Activity (IC50 for inhibition of the binding of platelets to vWF A1 domain). As to the method:
The activity of compounds of the formula I can be shown by procedures known in the art, for example by determining their inhibition of the binding of platelets to vWF A1 domain in an appropriate assay. To this end, assay plates can be coated with vWF-A1 domain. […] Then fluorescence-labeled thrombocytes are added and incubated for 90 minutes. In a complex washing procedure all non-bound thrombocytes are removed and the plates are measured, for example in a laser-based reader Acumen Explorer or a bulk reader like Spectramax. […] To assess the effect of compounds on the interaction of the GPIb complex on platelets with vWF, an assay system was used measuring binding of human platelets to recombinant human vWF-A1 domain under static conditions in the presence and absence of the compounds. […] Platelet rich plasma was carefully removed, transferred to a fresh container and spun down for 15 min at 120 g. Platelet rich plasma was carefully transferred again to fresh containers, PGE1 (0.5 μg/ml, Sigma) was added and the suspension was allowed to rest for 5 min. This was followed by another centrifugation step for 15 min at 360 g. The supernatant was discarded and the cell pellets were carefully resuspended in tyrode buffer (NaCl, 137 mM (Sigma S-3014); KCl, 2.7 mM (Sigma P-9541); NaHCO3,12 mM ([…] 31437); NaH2PO4×2H2O, 0.36 mM (Merck 6345); […] After 5 min of resting the suspension was spun down for 15 min at 300 g. The supernatant was discarded and the pellets were carefully resuspended in TBS buffer (Tris-HCl, 50 mM (Fluka 93371); NaCl, 120 mM (Sigma S-3014); KCl, 2.7 mM (Sigma P-9541); CaCl2, 0.05 mM (Sigma C-3306); MgCl2×6 H2O, 2 mM (Sigma M-2670); […] The platelet count was adjusted to 2×10^5 cells/μl, and the suspensions from individual donors were pooled at this stage. The platelets were allowed to rest for 30 min at room temperature before calcein AM (2.5 μM per 2×10^5 cells/μl (Molecular Probes C-3099)) was added. This was followed by 15 min incubation in the dark. Cells were diluted to 5×10^4 cells/μl and ReoPro (3 μg/ml (Centocor B. V., Leiden, N L)) was added, followed by a 10 min incubation period in the dark before adding the platelets to the assay plates. 96 well plates (Greiner hb, black, clear bottom, F, 655097) were coated with human recombinant vWF-A1 domain (1.5 μg/well, AA 475-706, expressed in E. coli) in Tris buffer (pH 7.4; Tris-HCl, 25 mM; NaCl, 150 mM) and incubated for 1 h at room temperature. After washing the wells 3× with TBS, blocking buffer (TBS with 5% BSA) was added followed by an incubation for 1 h. The wells were washed again 3× with TBS before 200 μl TBS were added to each well, preventing them from drying out. TBS was flicked out and serial dilutions of the test compound were added. The washed and calcein AM labeled thrombocytes were added to the wells (2.5×10^6 cells/well). Following an adhesion period of 1.5 h in the dark the wells were washed 3× with TBS. Measurement of fluorescence per well was performed in a SpectraMax M5 reader (Molecular Devices). From the raw data % inhibition and IC50 values were calculated.
`CC(C)C[C@@H]1NC(=O)[C@H](C)NC(=O)[C@H](CC(C)C)NC(=O)[C@H](CCCNC(=N)N)NC(=O)[C@H](CCC(=O)O)NC(=O)[C@H]([C@@H](C)O)NC(=O)CCCCCCNC(=O)[C@H](CC(C)C)NC(=O)[C@H](CC(N)=O)NC(=O)[C@H](Cc2c[nH]cn2)NC1=O` [Example 38, Cyclo[Leu-His-Asn-Leu-NH—(CH2)6—CO-Thr-Glu-Arg-Leu-Ala]] (cyclo(ALHNL[Ahp]TERL)): the IC50 (commonly the concentration needed to halve the response being measured) is less than 1000 nM.
To `CSCC[C@@H]1NC(=O)[C@H](CCCNC(=N)N)NC(=O)[C@H](CCC(=O)O)NC(=O)[C@H](CC(=O)O)NC(=O)CCCCCCNC(=O)[C@H](CC(C)C)NC(=O)[C@H](CC(N)=O)NC(=O)[C@H](Cc2c[nH]cn2)NC(=O)[C@H](CC(C)C)NC(=O)[C@H](C)NC1=O` [Example 10, Cyclo[Leu-His-Asn-Leu-NH—(CH2)6—CO-Asp-Glu-Arg-Met-Ala]] (cyclo(ALHNL[Ahp]DERM)) belongs 1000 to 10000 nM; to `CC(C)C[C@@H]1NC(=O)[C@H](C)NC(=O)[C@H](C2CCCCC2)NC(=O)[C@H](CCCNC(=N)N)NC(=O)[C@H](CCC(=O)O)NC(=O)[C@H]([C@@H](C)O)NC(=O)CCCCCCNC(=O)[C@H](CC(C)C)NC(=O)[C@H](CC(N)=O)NC(=O)[C@H](Cc2c[nH]cn2)NC1=O` [Example 39, Cyclo[Leu-His-Asn-Leu-NH—(CH2)6—CO-Thr-Glu-Arg-Chg-Ala]] (cyclo(ALHNL[Ahp]TER[Chg])), 1000 to 10000 nM; to `CC[C@H](C)[C@@H]1NC(=O)[C@H](CCCNC(=N)N)NC(=O)[C@H](CCC(=O)O)NC(=O)[C@H]([C@@H](C)O)NC(=O)CCCCCCNC(=O)[C@H](CC(C)C)NC(=O)[C@H](CC(N)=O)NC(=O)[C@H](Cc2c[nH]cn2)NC(=O)[C@H](CC(C)C)NC(=O)[C@H](C)NC1=O` [Example 18, Cyclo[Leu-His-Asn-Leu-NH—(CH2)6—CO-Thr-Glu-Arg-Ile-Ala]] (cyclo(ALHNL[Ahp]TERI)), 1000 to 10000 nM.
To `CSCC[C@@H]1NC(=O)[C@H](CCCNC(=N)N)NC(=O)[C@H](CCC(=O)O)NC(=O)[C@H]([C@@H](C)O)NC(=O)CCCCCCNC(=O)[C@H](CC(C)C)NC(=O)[C@H](CC(N)=O)NC(=O)[C@H](Cc2c[nH]cn2)NC(=O)[C@H](CC(C)C)NC(=O)[C@H](CN)NC1=O` [Example 32, Cyclo[Leu-His-Asn-Leu-NH—(CH2)6—CO-Thr-Glu-Arg-Met-Dpr]] (cyclo([Ahp]TERM[Dap]LHNL)) belongs less than 1000 nM; to `CSCC[C@@H]1NC(=O)[C@H](CCCNC(=N)N)NC(=O)[C@H](CCC(=O)O)NC(=O)[C@H]([C@@H](C)O)NC(=O)CCCCCCNC(=O)[C@H](CC(C)C)NC(=O)[C@H](CC(N)=O)NC(=O)[C@H](Cc2c[nH]cn2)NC(=O)[C@H](CC(C)C)NC(=O)[C@H](CCCNC(=N)N)NC1=O` [Example 30, Cyclo[Leu-His-Asn-Leu-NH—(CH2)6—CO-Thr-Glu-Arg-Met-Arg]] (cyclo([Ahp]TERMRLHNL)), 1000 to 10000 nM; to `CSCC[C@@H]1NC(=O)[C@H](CCCNC(=N)N)NC(=O)[C@H](CCC(=O)O)NC(=O)[C@H]([C@@H](C)O)NC(=O)CCCCCCNC(=O)[C@H](CC(C)C)NC(=O)[C@H](CC(N)=O)NC(=O)[C@H](Cc2c[nH]cn2)NC(=O)[C@H](CC2CCCCC2)NC(=O)[C@H](C)NC1=O` [Example 16, Cyclo[Cha-His-Asn-Leu-NH—(CH2)6—CO-Thr-Glu-Arg-Met-Ala]] (cyclo([Cha]HNL[Ahp]TERMA)), less than 1000 nM.
To `CSCC[C@@H]1NC(=O)[C@H](CCCNC(=N)N)NC(=O)[C@H](CCC(=O)O)NC(=O)[C@H](CCC(N)=O)NC(=O)CCCCCCNC(=O)[C@H](CC(C)C)NC(=O)[C@H](CC(N)=O)NC(=O)[C@H](Cc2c[nH]cn2)NC(=O)[C@H](CC(C)C)NC(=O)[C@H](C)NC1=O` [Example 25, Cyclo[Leu-His-Asn-Leu-NH—(CH2)6—CO-Gln-Glu-Arg-Met-Ala]] (cyclo(ALHNL[Ahp]QERM)) belongs less than 1000 nM; to `CSCC[C@@H]1NC(=O)[C@H](CCCNC(=N)N)NC(=O)[C@H](CCC(=O)O)NC(=O)[C@H]([C@@H](C)O)NC(=O)CCCCCCNC(=O)[C@H](CC(C)C)NC(=O)[C@H](CC(N)=O)NC(=O)[C@@H](Cc2c[nH]cn2)NC(=O)[C@H](CC(C)C)NC(=O)[C@H](C)NC1=O` [Example 33, Cyclo[Leu-D-His-Asn-Leu-NH—(CH2)6—CO-Thr-Glu-Arg-Met-Ala]] (cyclo(AL[dH]NL[Ahp]TERM)), 1000 to 10000 nM; to `CSCC[C@@H]1NC(=O)[C@H](CCCNC(=N)N)NC(=O)[C@H](CCC(=O)O)NC(=O)[C@H]([C@@H](C)O)NC(=O)[C@H](CC(N)=O)NC(=O)CCCNC(=O)[C@H](CC(C)C)NC(=O)[C@H](CC(N)=O)NC(=O)[C@H](Cc2c[nH]cn2)NC(=O)[C@H](CC(C)C)NC(=O)[C@H](C)NC1=O` [Example 50, Cyclo[Leu-His-Asn-Leu-NH—(CH2)3—CO-Asn-Thr-Glu-Arg-Met-Ala]] (cyclo(ALHNL[GABA]NTERM)), 1000 to 10000 nM.
Take `CC(C)C[C@@H]1NC(=O)[C@H](C)NC(=O)[C@H](C)NC(=O)[C@H](CCCNC(=N)N)NC(=O)[C@H](CCC(=O)O)NC(=O)[C@H]([C@@H](C)O)NC(=O)CCCCCCNC(=O)[C@H](CC(C)C)NC(=O)[C@H](CC(N)=O)NC(=O)[C@H](Cc2c[nH]cn2)NC1=O` [Example 40, Cyclo[Leu-His-Asn-Leu-NH—(CH2)6—CO-Thr-Glu-Arg-Ala-Ala]] (cyclo(AALHNL[Ahp]TER)): the IC50 was less than 1000 nM.
As for `CSCC[C@@H]1NC(=O)[C@H](CCCNC(=N)N)NC(=O)[C@H](CCC(=O)O)NC(=O)[C@H]([C@@H](C)O)NC(=O)CCCCCCCNC(=O)[C@H](CC(C)C)NC(=O)[C@H](CC(N)=O)NC(=O)[C@H](Cc2c[nH]cn2)NC(=O)[C@H](CC(C)C)NC(=O)[C@H](C)NC1=O` [Example 6, Cyclo[Leu-His-Asn-Leu-NH—(CH2)7—CO-Thr-Glu-Arg-Met-Ala]] (cyclo(ALHNL[Aoc]TERM)), the figure is less than 1000 nM.
As to `CSCC[C@@H]1NC(=O)[C@H](CCCNC(=N)N)NC(=O)[C@H](CCC(=O)O)NC(=O)[C@H]([C@@H](C)O)NC(=O)CCCNC(=O)[C@H](CN)NC(=O)[C@H](CC(C)C)NC(=O)[C@H](CC(N)=O)NC(=O)[C@H](Cc2c[nH]cn2)NC(=O)[C@H](CC(C)C)NC(=O)[C@H](C)NC1=O` [Example 49, Cyclo[Leu-His-Asn-Leu-Dpr-NH—(CH2)3—CO-Thr-Glu-Arg-Met-Ala]] (cyclo(ALHNL[Dap][GABA]TERM)), the IC50 was 1000 to 10000 nM.
To `CSCC[C@@H]1NC(=O)[C@H](CCCNC(=N)N)NC(=O)[C@H](CCC(=O)O)NC(=O)[C@H]([C@@H](C)O)NC(=O)CCCCCCNC(=O)[C@H](CC(C)C)NC(=O)[C@H](CC(N)=O)NC(=O)[C@H](Cc2c[nH]cn2)NC(=O)[C@H](CC(C)(C)C)NC(=O)[C@H](C)NC1=O` [Example 36, Cyclo[Npg-His-Asn-Leu-NH—(CH2)6—CO-Thr-Glu-Arg-Met-Ala]] (cyclo(A[tBuAla]HNL[Ahp]TERM)) belongs less than 1000 nM; to `CSCC[C@@H]1NC(=O)[C@H](CCCNC(=N)N)NC(=O)[C@H](CCC(=O)O)NC(=O)[C@H]([C@@H](C)O)NC(=O)CCCCCCNC(=O)[C@H](CC(C)C)NC(=O)[C@H](CC(N)=O)NC(=O)[C@H](Cc2c[nH]cn2)NC(=O)C2(CCCCC2)NC(=O)[C@H](C)NC1=O` [Example 37, Cyclo[Ac6-His-Asn-Leu-NH—(CH2)6—CO-Thr-Glu-Arg-Met-Ala]] (cyclo(A[Ac6c]HNL[Ahp]TERM)), 1000 to 10000 nM; to `CSCC[C@@H]1NC(=O)[C@H](CCCNC(=N)N)NC(=O)[C@H](CCC(=O)O)NC(=O)[C@H](Cc2c[nH]cn2)NC(=O)CCCCCCNC(=O)[C@H](CC(C)C)NC(=O)[C@H](CC(N)=O)NC(=O)[C@H](Cc2c[nH]cn2)NC(=O)[C@H](CC(C)C)NC(=O)[C@H](C)NC1=O` [Example 21, Cyclo[Leu-His-Asn-Leu-NH—(CH2)6—CO-His-Glu-Arg-Met-Ala]] (cyclo(ALHNL[Ahp]HERM)), 1000 to 10000 nM.

The values are drawn from patent US9073975B2, “Cyclic peptides, their preparation and their use as inhibitors of the platelet adhesion” (SANOFI, priority 2010, dated 2015).
